Experimental data: patent US9670203B2 (BeiGene, LTD., priority 2013, dated 2017)
Like-named read-outs stand apart in the source and are kept apart here.

Legend:
wild type B-Raf = wild type B-Raf (Homo sapiens (Human), UniProt P15056); experiment: WT B-Raf IC50 assay, time-resolved fluorescence energy transfer; type: biochemical
Method: The IC50 for each compound was calculated by non linear regression by Graphpad Prism software.

A375 = experiment: Anti-proliferative activity EC50 assay (CellTiter-Glo) in A375; type: cell-based; details: Homo sapiens, A-375, 72 h; 3-day exposure; read-out: Cell Proliferation EC50 (nM) A375
Method: The growth-inhibitory activity of compounds in A375 and p61-A375, was determined using CellTiter-Glo luminescent cell viability assay (Promega). The 2,000 cells were seeded per well of a 96-well plate to ensure logarithmic growth could occur over the 3 days treatment period. Cells were left to attach for 16 hours, cells were treated in duplicate with a 10-point dilution series. Following a 3-day exposure to compounds disclosed herein, a volume of CellTiter-Glo reagent equal to the volume of cell culture medium present in each well was added. Mixture was mixed on an orbital shaker for 2 minutes to allow cell lysis, followed by 10 minutes incubation at room temperature to allow stabilization of luminescent signal, which corresponded to quantitation of ATP and thus the quantitation of metabolically active cells. Luminescent signal was measured using Pherastar FS reader (BMG Labtech).
EC50 values for growth inhibition were calculated by fitting dose-dependent data to the four-parameter logistic model using GraphPad Prism software.

C-Raf (Y340D/Y341D) = C-Raf (Y340D/Y341D) (Homo sapiens (Human), UniProt P04049, Y340D/Y341D); experiment: Raf IC50 assay, time-resolved fluorescence energy transfer, C-Raf (Y340D/Y341D); type: biochemical; details: 0.1 mM ATP
C-Raf (Y340D/Y341D), sequence (P04049 whole entry Y340D/Y341D): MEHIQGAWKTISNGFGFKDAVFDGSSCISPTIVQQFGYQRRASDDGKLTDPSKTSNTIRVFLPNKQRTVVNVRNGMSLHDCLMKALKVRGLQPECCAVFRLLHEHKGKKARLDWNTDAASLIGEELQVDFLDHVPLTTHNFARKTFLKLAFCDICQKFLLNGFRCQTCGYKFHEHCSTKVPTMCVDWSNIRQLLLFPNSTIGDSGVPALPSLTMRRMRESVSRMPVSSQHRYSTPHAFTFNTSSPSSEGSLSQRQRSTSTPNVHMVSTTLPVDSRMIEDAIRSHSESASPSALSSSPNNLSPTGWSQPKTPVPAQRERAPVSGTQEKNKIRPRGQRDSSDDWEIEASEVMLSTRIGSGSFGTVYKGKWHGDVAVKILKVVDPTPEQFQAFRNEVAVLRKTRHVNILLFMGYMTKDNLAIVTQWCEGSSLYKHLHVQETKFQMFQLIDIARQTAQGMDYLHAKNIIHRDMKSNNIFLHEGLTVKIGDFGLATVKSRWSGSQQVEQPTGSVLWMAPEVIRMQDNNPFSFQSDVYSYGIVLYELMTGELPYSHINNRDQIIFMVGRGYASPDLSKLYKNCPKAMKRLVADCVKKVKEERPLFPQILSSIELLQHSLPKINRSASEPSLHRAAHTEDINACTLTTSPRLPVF
Method: The assay was carried out in reactions (10 μL) containing 0.0625 nM B-Raf or 0.5 nM C-Raf, 25 mM Tris pH7.4, 10 mM MgCl2, 0.5 mM EGTA, 0.5 mM Na3VO4, 5 mM beta-glycerophosphate, 0.01% Triton X-100, 2.5 mM DTT, 0.1% BSA, 0.1 mM ATP, 13.7 nM GST-tagged MEK1 (Full-length protein with K97R mutation, recombinant protein purified from bacterial expression system) and 0-5 μM compounds disclosed herein (final concentration of 1% DMSO). The enzyme was incubated with the compounds at room temperature for 60 minutes and the reactions were initiated by the addition of ATP and GST-MEK1. After reaction at room temperature for 60 minutes, an equal volume of stop/detection solution was added according to the manufacture's instruction (CisBio Bioassays). The stop/detection solution contained Eu^3+ cryptate-conjugated anti-phospho MEK1/2 (Ser217/221) rabbit polyclonal antibody and d2-conjugated anti-GST mouse monoclonal antibody in buffer containing 25 mM Tris pH7.4, 400 mM KF, 50 mM EDTA, 0.01% BSA and 0.01% Triton X-100. Plates were sealed and incubated at room temperature for 2 hours, and the TR-FRET signals (ratio of fluorescence emission at 665 nm over emission at 620 nm with excitation at 337 nm wavelength) were recorded on a PHERAstar FS plate reader (BMG Labtech). Phosphorylation of MEK1 led to the binding of anti-phospho-MEK1/2 antibody to GST-MEK1 protein that place fluorescent donor (Eu^3+ crypate) in close proximity to the accepter d2 on the anti-GST antibody, thus resulting in a high degree of fluorescence resonance energy transfer from the donor fluorophore (at 620 nm) to the acceptor fluorophore (at 665 nm). […] The IC50 for each compound was derived from fitting the dose-response % inhibition data to the four-parameter logistic model by Graphpad Prism software.

B-Raf (V600E) = B-Raf (V600E) (Homo sapiens (Human), UniProt P15056, V600E); experiment: Raf IC50 assay, time-resolved fluorescence energy transfer, B-Raf (V600E); type: biochemical; details: 0.1 mM ATP; read-out: IC50 (nM) B_Raf^V600E
B-Raf (V600E), sequence (P15056 whole entry V600E): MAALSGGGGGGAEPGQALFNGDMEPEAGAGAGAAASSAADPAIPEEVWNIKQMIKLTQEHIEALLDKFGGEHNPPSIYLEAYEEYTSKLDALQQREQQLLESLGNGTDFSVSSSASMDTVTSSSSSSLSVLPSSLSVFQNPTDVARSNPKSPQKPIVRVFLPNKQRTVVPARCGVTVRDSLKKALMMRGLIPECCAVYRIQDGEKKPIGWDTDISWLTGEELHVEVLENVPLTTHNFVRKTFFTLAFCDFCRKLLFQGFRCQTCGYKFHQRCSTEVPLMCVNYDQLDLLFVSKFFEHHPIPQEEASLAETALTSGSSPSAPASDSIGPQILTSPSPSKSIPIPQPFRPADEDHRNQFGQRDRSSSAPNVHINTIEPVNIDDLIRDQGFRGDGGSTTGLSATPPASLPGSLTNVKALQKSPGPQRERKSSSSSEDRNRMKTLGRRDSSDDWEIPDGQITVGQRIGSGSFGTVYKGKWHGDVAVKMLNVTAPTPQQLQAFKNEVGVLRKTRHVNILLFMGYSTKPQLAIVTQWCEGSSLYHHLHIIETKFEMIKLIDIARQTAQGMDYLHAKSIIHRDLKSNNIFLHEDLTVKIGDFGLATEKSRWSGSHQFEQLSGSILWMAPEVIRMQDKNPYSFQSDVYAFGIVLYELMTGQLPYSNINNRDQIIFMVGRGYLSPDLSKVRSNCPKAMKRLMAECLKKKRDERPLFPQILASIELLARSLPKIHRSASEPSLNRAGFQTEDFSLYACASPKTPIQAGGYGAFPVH
Method: The enzyme was incubated with the compounds at room temperature for 60 minutes and the reactions were initiated by the addition of ATP and GST-MEK1. After reaction at room temperature for 60 minutes, an equal volume of stop/detection solution was added according to the manufacture's instruction (CisBio Bioassays). […] The IC50 for each compound was derived from fitting the dose-response % inhibition data to the four-parameter logistic model by Graphpad Prism software.

[1] = 2.5 mM ATP, read-out: IC50 (nM) B-Raf^WT 2.5 mM ATP
[2] = Km ATP (2.9 μM ATP), read-out: IC50 (nM) B-Raf^WT Km ATP

wild type B-Raf, sequence (P15056 whole entry): as the sequence (P15056 whole entry V600E) above, with E600V counted along it

Cc1cc(NC(=O)N[C@@H]2[C@H]3Oc4ccc(Oc5ccnc6c5CCC(=O)N6)cc4[C@@H]23)ccc1F [Compound 1.24]
IC50 (wild type B-Raf; [1]): 7.7 nM | IC50 (wild type B-Raf; [2]): 2.7 nM | EC50 (A375): 25 nM | IC50 (C-Raf (Y340D/Y341D)): 0.37 nM | IC50 (B-Raf (V600E)): 1.5 nM

O=C1CCc2c(Oc3ccc4c(c3)[C@H]3[C@H](NC(=O)Nc5ccc(Cl)c(C(F)(F)F)c5)[C@H]3O4)ccnc2N1 [Compound 1.25]
IC50 (wild type B-Raf; [2]): 33 nM | EC50 (A375): 25 nM | IC50 (C-Raf (Y340D/Y341D)): 2.3 nM | IC50 (B-Raf (V600E)): 27 nM

O=C1CCc2c(Oc3ccc4c(c3)[C@H]3[C@H](NC(=O)Nc5ccc(Cl)c(Cl)c5)[C@H]3O4)ccnc2N1 [Compound 1.28]
IC50 (wild type B-Raf; [1]): 49 nM | IC50 (wild type B-Raf; [2]): 16 nM | EC50 (A375): 40 nM | IC50 (C-Raf (Y340D/Y341D)): 0.77 nM | IC50 (B-Raf (V600E)): 5.5 nM

O=C1CCc2c(Oc3ccc4c(c3)[C@H]3[C@H](NC(=O)Nc5ccc(F)cc5)[C@H]3O4)ccnc2N1 [Compound 1.41]
IC50 (wild type B-Raf; [2]): 0.57 nM | EC50 (A375): 65 nM | IC50 (C-Raf (Y340D/Y341D)): 0.15 nM | IC50 (B-Raf (V600E)): 0.8 nM

O=C1CCc2c(Oc3ccc4c(c3)[C@H]3[C@H](NC(=O)Nc5cccc(F)c5F)[C@H]3O4)ccnc2N1 [Compound 1.42]
IC50 (wild type B-Raf; [2]): 1.5 nM | EC50 (A375): 178 nM | IC50 (C-Raf (Y340D/Y341D)): 0.24 nM | IC50 (B-Raf (V600E)): 0.94 nM

O=C1CCc2c(Oc3ccc4c(c3)[C@H]3[C@H](NC(=O)Nc5cc(F)ccc5F)[C@H]3O4)ccnc2N1 [Compound 1.43]
IC50 (wild type B-Raf; [1]): 5.9 nM | IC50 (wild type B-Raf; [2]): 2.1 nM | EC50 (A375): 96 nM | IC50 (C-Raf (Y340D/Y341D)): 0.26 nM | IC50 (B-Raf (V600E)): 1.2 nM

O=C1CCc2c(Oc3ccc4c(c3)[C@H]3[C@H](NC(=O)Nc5c(F)cccc5F)[C@H]3O4)ccnc2N1 [Compound 1.44]
IC50 (wild type B-Raf; [2]): 1.9 nM | EC50 (A375): 702 nM | IC50 (C-Raf (Y340D/Y341D)): 0.21 nM | IC50 (B-Raf (V600E)): 1.3 nM

O=C1CCc2c(Oc3ccc4c(c3)[C@H]3[C@H](NC(=O)Nc5ccc(F)c(F)c5F)[C@H]3O4)ccnc2N1 [Compound 1.46]
IC50 (wild type B-Raf; [1]): 6 nM | IC50 (wild type B-Raf; [2]): 1.7 nM | EC50 (A375): 109 nM | IC50 (C-Raf (Y340D/Y341D)): 0.22 nM | IC50 (B-Raf (V600E)): 0.78 nM

O=C1CCc2c(Oc3ccc4c(c3)[C@H]3[C@H](NC(=O)Nc5cc(F)c(F)c(F)c5)[C@H]3O4)ccnc2N1 [Compound 1.47]
IC50 (wild type B-Raf; [1]): 23 nM | IC50 (wild type B-Raf; [2]): 6.4 nM | EC50 (A375): 140 nM | IC50 (C-Raf (Y340D/Y341D)): 0.53 nM | IC50 (B-Raf (V600E)): 4.1 nM

O=C1CCc2c(Oc3ccc4c(c3)[C@H]3[C@H](NC(=O)NC5CCCCC5)[C@H]3O4)ccnc2N1 [Compound 1.66]
IC50 (wild type B-Raf; [2]): 2.3 nM | EC50 (A375): 101 nM | IC50 (C-Raf (Y340D/Y341D)): 0.25 nM | IC50 (B-Raf (V600E)): 2.3 nM

CCN1CCN(Cc2ccc(NC(=O)N[C@@H]3[C@H]4Oc5ccc(Oc6ccnc7c6CCC(=O)N7)cc5[C@@H]34)cc2C(F)(F)F)CC1 [Compound 1.73, 1-(4-((4-ethylpiperazin-1-yl)methyl)-3-(trifluoromethyl)phenyl)-3-((1S,1aS,6bS)-5-((7-oxo-5,6,7,8-tetrahydro-1,8-naphthyridin-4-yl)oxy)-1a,6b-dihydro-1H-cyclopropa[b]benzofuran-1-yl)urea]
IC50 (wild type B-Raf; [2]): 13 nM | EC50 (A375): 1330 nM | IC50 (C-Raf (Y340D/Y341D)): 0.84 nM | IC50 (B-Raf (V600E)): 13 nM

COc1cc(NC(=O)N[C@@H]2[C@H]3Oc4ccc(Oc5ccnc6c5CCC(=O)N6)cc4[C@@H]23)ccn1 [Compound 1.75, 1-(2-methoxypyridin-4-yl)-3-((1S,1aS,6bS)-5-((7-oxo-5,6,7,8-tetrahydro-1,8-naphthyridin-4-yl)oxy)-1a,6b-dihydro-1H-cyclopropa[b]benzofuran-1-yl)urea]
IC50 (wild type B-Raf; [2]): 2.4 nM | EC50 (A375): 405 nM | IC50 (C-Raf (Y340D/Y341D)): 0.27 nM | IC50 (B-Raf (V600E)): 2.2 nM
